Measurements from US4381311A, “Antiinflammatory 4,5-diaryl-α-(polyhalomethyl)-2-thiophenemethanols” (E. I. Du Pont de Nemours and Company, priority 1981, dated 1983).
Where two headings read alike, the source gives them in different places.

Test system: adjuvant-induced arthritis in rats
Assay: Established adjuvant-induced arthritis in rats (paw volume of uninjected left hind paw)
Assay type: in vivo, Charles River Lewis male rats
Conditions: for ED50: Rattus norvegicus, 168 h, read-out: ED50% Decrease From Control Paw Volume; for Percent Decrease From Control Paw Volume: rats, Student's t test
Method: A procedure for detecting and comparing the antiinflammatory activity of compounds in this series and standard drugs for which there is a good correlation with human efficacy is the adjuvant-induced arthritis test in rats.
The test procedure employed for determining antiinflammatory activity is described below.
ESTABLISHED ADJUVANT-INDUCED ARTHRITIS IN RATS
Charles River Lewis male rats (130-150 grams) are injected subcutaneously in plantar area of the right hind paw with 0.1 ml of adjuvant (Difco heat-killed, lyophilized Mycobacterium butyricum suspended in mineral oil 5 mg/ml). 20 Non-arthritic controls are injected with mineral oil. The animals are held for 2 weeks to allow development of arthritis. Paw volumes (uninjected, left hind paw) are measured and the adjuvant injected rats are culled and distributed to treatment groups of 10 of equal disease severity. Non-arthritic controls are distributed to 2 groups of 10. The rats are given oral doses of compound or PVA-Acacia (Polyvinyl Alcohol 1%, Gum Acacia, U.S.P. 5%, Methylparaben 0.5%) (10 ml/kg) by gavage on that day and on the 6 following days. One day after the last dose the paw volumes (uninjected, left hind paw) are measured using a Ugo Basile Volume Differential Meter Model 7101. [formula]
Dose-response regression lines of the % decrease are plotted on semi-log paper by visual fit and the ED50% decrease from control paw volume is determined by inspection.

[1] = oral gavage daily, 7 days, established adjuvant-induced arthritis, Lewis male rats, ED50% by inspection of dose-response regression lines
[2] = daily oral dose 27 mg/kg, 7 days, established adjuvant-induced arthritis, p < 0.1 (Ex. 2), p < 0.001 (Ex. 3) vs control

## CC(=O)Oc1ccccc1C(=O)O [Aspirin, reference compound]
po
  ED50: 270 mg/kg

## OC(c1cc(-c2ccc(F)cc2)c(-c2ccc(F)cc2)s1)(C(F)(F)F)C(F)(F)F [Example 1, 4,5-Bis(4-fluorophenyl)-α,α-bis(trifluoromethyl)-2-thiophenemethanol]
[1]
  ED50: 10 mg/kg

## OC(c1cc(-c2ccc(F)cc2)c(-c2ccc(F)cc2)s1)(C(F)(F)Cl)C(F)(Cl)Cl (stereo not drawn) [Example 2]
[2]
  Percent Decrease From Control Paw Volume: 20%

## COc1ccc(-c2cc(C(O)(C(F)(F)F)C(F)(F)F)sc2-c2ccc(OC)cc2)cc1 [Example 3]
[2]
  Percent Decrease From Control Paw Volume: 47%

## COc1ccc(-c2cc(C(O)(C(F)(F)F)C(F)(F)F)sc2-c2ccc(SC)cc2)cc1 [Example 4, 4-(4-Methoxyphenyl)-5-(4-methylthiophenyl)-α,α-bis(trifluoromethyl)-2-thiophenemethanol]
[1]
  ED50: 10 mg/kg

## OC(c1cc(-c2ccc(F)cc2)c(-c2ccc(Cl)cc2)s1)(C(F)(F)F)C(F)(F)F [Example 5, 5-(4-Chlorophenyl)-4-(4-fluorophenyl)-α,α-bis(trifluoromethyl)-2-thiophenemethanol]
[1]
  ED50: 9 mg/kg

## OC(c1cc(-c2ccccc2)c(-c2ccccc2)s1)(C(F)(F)F)C(F)(F)F [Example 6]
[1]
  ED50: 21 mg/kg

## CC(O)(c1cc(-c2ccc(F)cc2)c(-c2ccc(F)cc2)s1)C(F)(F)F (stereo not drawn) [Example 7, 4,5-Bis(4-fluorophenyl)-α-methyl-α-trifluoromethyl-2-thiophenemethanol]
[1]
  ED50: 5.5 mg/kg

## OC(c1cc(-c2ccc(F)cc2)c(-c2ccc(F)cc2)s1)(C(F)(F)Cl)C(F)(F)Cl [Example 8, 4,5-Bis(4-fluorophenyl)-α,α-bis(chlorodifluoromethyl)-2-thiophenemethanol]
[1]
  ED50: 4.5 mg/kg

## OC(c1cc(-c2ccc(F)cc2)c(-c2ccc(F)cc2)s1)(C(F)F)C(F)(F)F (stereo not drawn) [Example 9]
[1]
  ED50: 18 mg/kg

## OC(c1cc(-c2ccc(F)cc2)c(-c2ccc(F)cc2)s1)(C(F)(F)F)C(F)(F)Cl (stereo not drawn) [Example 10, 4,5-Bis(4-fluorophenyl)-α-chlorodifluoromethyl-α-trifluoromethyl-2-thiophenemethanol]
[1]
  ED50: 6.8 mg/kg

## Cc1c(C(O)(C(F)(F)Cl)C(F)(F)Cl)sc(-c2ccc(F)cc2)c1-c1ccc(F)cc1 [Example 27, 3-Methyl-4,5-bis(4-fluorophenyl)-α,α-bis(chlorodifluoromethyl)-2-thiophenemethanol]
[1]
  ED50: 12 mg/kg

## CC(=O)OC(c1cc(-c2ccc(F)cc2)c(-c2ccc(F)cc2)s1)(C(F)(F)Cl)C(F)(F)Cl [Example 29, 4,5-Bis(4-fluorophenyl)-α,α-bis(chlorodifluoromethyl)-2-thiophenemethanol, acetate]
Daily oral dose 51 mg/kg, 7 days, established adjuvant-induced arthritis, p < 0.001 vs control
  Percent Decrease From Control Paw Volume: 31%

## COc1ccc2c(c1)c(CC(=O)O)c(C)n2C(=O)c1ccc(Cl)cc1 [Indomethacin, reference compound]
po
  ED50: 0.25 mg/kg

## CCCCC1C(=O)N(c2ccccc2)N(c2ccccc2)C1=O [Phenylbutazone, reference compound]
[1]
  ED50: 10 mg/kg
